Source: ChEMBL document CHEMBL1909046, “DrugMatrix in vitro pharmacology data”

What was measured:
[1] = target: T1, Alpha-1D adrenergic receptor (Homo sapiens, UniProt P25100); format: cell membranes, HEK293, Membrane; details: for Ki: read-out: Ki; as to all read-outs here: in other assays of this panel Not Active means under 50% inhibition at 10 µM
T1 sequence (P25100 whole entry): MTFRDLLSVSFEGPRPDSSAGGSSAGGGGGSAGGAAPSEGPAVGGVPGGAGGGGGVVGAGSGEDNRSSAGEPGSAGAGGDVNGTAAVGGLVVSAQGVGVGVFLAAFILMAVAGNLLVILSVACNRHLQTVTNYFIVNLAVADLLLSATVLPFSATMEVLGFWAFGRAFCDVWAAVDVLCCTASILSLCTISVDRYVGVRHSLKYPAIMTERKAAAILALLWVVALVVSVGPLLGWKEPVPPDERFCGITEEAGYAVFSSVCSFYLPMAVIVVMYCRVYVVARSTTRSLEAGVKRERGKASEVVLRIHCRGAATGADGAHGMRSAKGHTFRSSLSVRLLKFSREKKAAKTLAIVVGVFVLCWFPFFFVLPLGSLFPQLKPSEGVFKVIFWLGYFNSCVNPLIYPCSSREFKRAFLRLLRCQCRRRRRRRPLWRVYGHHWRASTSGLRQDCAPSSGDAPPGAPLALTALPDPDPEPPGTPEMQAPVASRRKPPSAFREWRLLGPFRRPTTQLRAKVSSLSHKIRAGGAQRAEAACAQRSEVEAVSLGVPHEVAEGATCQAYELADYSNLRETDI

[2] = target: Beta-3 adrenergic receptor (Homo sapiens, UniProt P13945); assay: DRUGMATRIX: Adrenergic beta3 radioligand binding (ligand: [125I] Cyanopindolol); format: cell membranes, HEK293, Membrane; details: Not Active = under 50% inhibition at 10 µM
[3] = target: Sigma non-opioid intracellular receptor 1 (Homo sapiens, UniProt Q99720); assay: DRUGMATRIX: Sigma1 radioligand binding (ligand: [3H] Haloperidol); format: cell membranes, Jurkat, Membrane; details: jurkat; Not Active = under 50% inhibition at 10 µM
[4] = target: T2, Cholecystokinin receptor type A (Homo sapiens, UniProt P32238); format: cell membranes, Membrane; details: 1321-n1; also: in other assays of this panel Not Active means under 50% inhibition at 10 µM
T2 sequence (P32238 whole entry): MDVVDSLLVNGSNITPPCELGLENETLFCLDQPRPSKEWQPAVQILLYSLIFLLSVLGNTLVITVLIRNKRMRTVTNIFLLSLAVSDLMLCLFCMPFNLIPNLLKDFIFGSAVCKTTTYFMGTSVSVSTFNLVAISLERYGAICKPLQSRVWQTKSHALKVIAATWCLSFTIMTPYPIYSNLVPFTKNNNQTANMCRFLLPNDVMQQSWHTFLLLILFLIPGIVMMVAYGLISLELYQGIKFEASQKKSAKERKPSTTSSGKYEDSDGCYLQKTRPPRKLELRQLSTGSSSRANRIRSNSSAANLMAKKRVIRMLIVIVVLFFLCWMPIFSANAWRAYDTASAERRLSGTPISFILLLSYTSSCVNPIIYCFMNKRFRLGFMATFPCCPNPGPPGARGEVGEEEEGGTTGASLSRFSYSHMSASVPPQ

[5] = target: T3, 3-hydroxy-3-methylglutaryl-coenzyme A reductase (Homo sapiens, UniProt P04035); parameters: species or system Escherichia coli;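 also: enzyme inhibition assay of HMG-CoA reductase using radiolabeled [14C]HMG-CoA as substrate; in other assays of this panel Not Active means under 50% inhibition at 10 µM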
T3 sequence (P04035 whole entry): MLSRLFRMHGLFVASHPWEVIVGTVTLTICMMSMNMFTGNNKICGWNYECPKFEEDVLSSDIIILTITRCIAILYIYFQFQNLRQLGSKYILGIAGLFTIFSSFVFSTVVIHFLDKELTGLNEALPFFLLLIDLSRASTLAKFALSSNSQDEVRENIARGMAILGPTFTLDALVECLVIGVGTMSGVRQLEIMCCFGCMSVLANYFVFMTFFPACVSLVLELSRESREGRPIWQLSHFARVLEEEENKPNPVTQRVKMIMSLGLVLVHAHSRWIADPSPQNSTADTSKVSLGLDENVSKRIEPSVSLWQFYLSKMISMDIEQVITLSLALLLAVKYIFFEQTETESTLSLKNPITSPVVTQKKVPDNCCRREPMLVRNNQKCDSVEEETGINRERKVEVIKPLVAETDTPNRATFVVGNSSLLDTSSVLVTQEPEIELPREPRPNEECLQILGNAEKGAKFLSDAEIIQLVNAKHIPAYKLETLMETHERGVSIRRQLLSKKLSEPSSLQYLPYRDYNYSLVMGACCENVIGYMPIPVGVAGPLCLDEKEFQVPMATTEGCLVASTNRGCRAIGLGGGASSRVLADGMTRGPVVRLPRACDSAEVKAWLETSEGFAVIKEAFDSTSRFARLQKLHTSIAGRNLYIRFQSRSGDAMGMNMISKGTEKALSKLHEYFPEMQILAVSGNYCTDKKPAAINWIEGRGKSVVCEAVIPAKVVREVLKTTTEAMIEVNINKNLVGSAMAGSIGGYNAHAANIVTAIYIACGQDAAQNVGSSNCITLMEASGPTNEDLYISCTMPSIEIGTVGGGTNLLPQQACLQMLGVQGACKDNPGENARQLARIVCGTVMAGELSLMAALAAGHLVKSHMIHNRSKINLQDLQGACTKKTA

Leukotriene C4 synthase = target: T4, Leukotriene C4 synthase (Cavia porcellus, UniProt A6XA80); assay: biochemical; format: tissue-based, Lung;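 also: enzyme inhibition assay of leukotriene C4 synthase, using LTA4 as the substrate; in other assays of this panel Not Active means under 50% inhibition at 10 µM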
T4 sequence (A6XA80 whole entry): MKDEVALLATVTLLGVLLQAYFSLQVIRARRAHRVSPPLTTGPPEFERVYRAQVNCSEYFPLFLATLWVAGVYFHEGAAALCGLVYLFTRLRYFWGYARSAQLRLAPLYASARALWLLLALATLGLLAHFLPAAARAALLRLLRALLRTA

[6] = target: Tyrosine-protein kinase Lck (Homo sapiens, UniProt P06239); assay: DRUGMATRIX: Protein Tyrosine Kinase, LCK enzyme inhibition (substrate: Poly(Glu:Tyr)); format: cell-based, Insect cells; details: insect cells; Not Active = under 50% inhibition at 10 µM
Chain of Tyrosine-protein kinase Lck (P06239 whole entry): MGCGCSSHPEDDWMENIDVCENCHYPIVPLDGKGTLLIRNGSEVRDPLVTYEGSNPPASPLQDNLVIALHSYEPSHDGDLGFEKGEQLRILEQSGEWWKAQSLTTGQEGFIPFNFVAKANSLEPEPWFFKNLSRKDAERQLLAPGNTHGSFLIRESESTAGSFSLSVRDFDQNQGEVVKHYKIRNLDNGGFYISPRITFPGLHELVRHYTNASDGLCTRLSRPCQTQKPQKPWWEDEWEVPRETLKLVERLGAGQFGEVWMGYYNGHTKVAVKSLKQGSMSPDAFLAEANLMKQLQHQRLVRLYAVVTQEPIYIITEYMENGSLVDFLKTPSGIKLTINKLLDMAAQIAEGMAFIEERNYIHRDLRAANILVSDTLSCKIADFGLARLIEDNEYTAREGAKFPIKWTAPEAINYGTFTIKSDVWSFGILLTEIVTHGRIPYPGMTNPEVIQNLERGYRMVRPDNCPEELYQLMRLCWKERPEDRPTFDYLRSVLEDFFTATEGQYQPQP

Chain of Beta-3 adrenergic receptor (P13945 whole entry): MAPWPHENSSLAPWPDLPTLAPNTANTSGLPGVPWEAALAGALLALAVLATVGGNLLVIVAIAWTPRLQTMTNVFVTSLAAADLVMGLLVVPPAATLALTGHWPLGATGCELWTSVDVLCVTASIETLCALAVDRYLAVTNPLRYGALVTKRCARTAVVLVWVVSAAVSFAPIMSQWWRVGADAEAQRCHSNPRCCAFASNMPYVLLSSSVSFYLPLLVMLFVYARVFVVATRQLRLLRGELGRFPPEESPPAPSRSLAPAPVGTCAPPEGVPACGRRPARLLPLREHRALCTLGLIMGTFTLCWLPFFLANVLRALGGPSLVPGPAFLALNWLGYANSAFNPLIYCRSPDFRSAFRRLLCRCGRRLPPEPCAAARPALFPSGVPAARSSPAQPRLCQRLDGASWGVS
Chain of Sigma non-opioid intracellular receptor 1 (Q99720 whole entry): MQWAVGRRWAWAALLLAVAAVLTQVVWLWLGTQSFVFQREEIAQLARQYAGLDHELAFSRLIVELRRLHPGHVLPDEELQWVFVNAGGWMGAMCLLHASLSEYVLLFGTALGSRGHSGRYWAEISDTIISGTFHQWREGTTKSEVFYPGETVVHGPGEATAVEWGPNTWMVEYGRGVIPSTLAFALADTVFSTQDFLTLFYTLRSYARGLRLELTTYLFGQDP

Structure (SMILES) | IC50 ([1]; hek293) | IC50 ([2]; hek293) | IC50 [3] | IC50 [4] | IC50 [5] | IC50 (Leukotriene C4 synthase) | IC50 [6] | IC50 ([1]; read-out: IC50) [nM] | Ki [1] [nM] | IC50 ([2]; read-out: IC50) [nM] | Ki ([2]; read-out: Ki) [nM]
Oc1ccccc1 [PHENOL] | Not Active | Not Active | Not Active | Not Active | Not Active | Not Active | Not Active |  |  |  | 
Oc1ncnc2[nH]ncc12 [ALLOPURINOL] | Not Active | Not Active | Not Active | Not Active | Not Active | Not Active | Not Active |  |  |  | 
COC(=O)Nc1nc2ccc(Sc3ccccc3)cc2[nH]1 [FENBENDAZOLE] | Not Active | Not Active | Not Active | Not Active | Not Active | Not Active | Not Active |  |  |  | 
C[C@@H]1[C@H](O)[C@@H](C)/C=C/C=C/C=C/C=C/C=C/C=C/C=C/[C@H](O[C@@H]2O[C@H](C)[C@@H](O)[C@H](N)[C@@H]2O)C[C@@H]2O[C@](O)(C[C@@H](O)C[C@@H](O)[C@H](O)CC[C@@H](O)C[C@@H](O)CC(=O)O[C@H]1C)C[C@H](O)[C@H]2C(=O)O [AMPHOTERICIN B] | Not Active | Not Active | Not Active | Not Active | Not Active | Not Active | Not Active |  |  |  | 
CCO [ALCOHOL] | Not Active | Not Active | Not Active | Not Active | Not Active | Not Active | Not Active |  |  |  | 
COc1cc(/C=C/C(=O)O)ccc1O [FERULATE] | Not Active | Not Active | Not Active | Not Active | Not Active | Not Active | Not Active |  |  |  | 
CNC[C@H](O)c1ccc(O)c(O)c1 [EPINEPHRINE] |  | Not Active | Not Active | Not Active | Not Active | Not Active | Not Active | 449 | 221 |  | 
CC1(COc2ccc(CC3SC(=O)NC3=O)cc2)CCCCC1 (configuration not stated) [CIGLITAZONE] | Not Active |  | Not Active | Not Active | Not Active | Not Active | Not Active |  |  | 17900 | 13400
NC(N)=Nc1nc(CSCCC(N)=NS(N)(=O)=O)cs1 [FAMOTIDINE] | Not Active | Not Active | Not Active | Not Active | Not Active | Not Active | Not Active |  |  |  | 
Nc1nc(F)nc2c1ncn2[C@@H]1O[C@H](CO)[C@@H](O)[C@@H]1O [FLUDARABINE] | Not Active | Not Active | Not Active | Not Active | Not Active | Not Active | Not Active |  |  |  | 
NC(=O)NC(=O)Cc1ccccc1 [PHENACEMIDE] | Not Active | Not Active | Not Active | Not Active | Not Active | Not Active | Not Active |  |  |  | 
Nc1ccc(C(=O)O)c(O)c1 [AMINOSALICYLIC ACID] | Not Active | Not Active | Not Active | Not Active | Not Active | Not Active | Not Active |  |  |  | 
O=c1[nH]cnc2c1ncn2[C@H]1CC[C@@H](CO)O1 [DIDANOSINE] | Not Active | Not Active | Not Active | Not Active | Not Active | Not Active | Not Active |  |  |  | 
NC(=O)CN1CCCC1=O | Not Active | Not Active | Not Active | Not Active | Not Active | Not Active | Not Active |  |  |  | 
Clc1cc(Cl)c(OCC#CI)cc1Cl [HALOPROGIN] | Not Active | Not Active | Not Active | Not Active | Not Active | Not Active | Not Active |  |  |  | 
O=C(NCCN1CCOCC1)c1ccc(Cl)cc1 [MOCLOBEMIDE] | Not Active | Not Active | Not Active | Not Active | Not Active | Not Active | Not Active |  |  |  | 
Cc1c(N)nc([C@H](CC(N)=O)NC[C@H](N)C(N)=O)nc1C(=O)N[C@H](C(=O)N[C@H](C)[C@@H](O)[C@H](C)C(=O)N[C@H](C(=O)NCCc1nc(-c2nc(C(=O)NCCC[S+](C)C)cs2)cs1)[C@@H](C)O)[C@@H](O[C@@H]1O[C@@H](CO)[C@@H](O)[C@H](O)[C@@H]1O[C@H]1O[C@H](CO)[C@@H](O)[C@H](OC(N)=O)[C@@H]1O)c1c[nH]cn1.[Br-] [BLEOMYCIN A2] | Not Active | Not Active | Not Active | Not Active | Not Active | Not Active | Not Active |  |  |  | 
CC(C)Cc1ccc([C@H](C)C(=O)O)cc1 [DEXIBUPROFEN] | Not Active | Not Active | Not Active | Not Active | Not Active | Not Active | Not Active |  |  |  | 
COc1ccc(C[C@H](N)C(=O)N[C@H]2[C@@H](O)[C@H](n3cnc4c(N(C)C)ncnc43)O[C@@H]2CO)cc1 [PUROMYCIN] | Not Active | Not Active | Not Active | Not Active | Not Active | Not Active | Not Active |  |  |  | 
CCC1(c2ccccc2)C(=O)NC(=O)NC1=O [PHENOBARBITAL] | Not Active | Not Active | Not Active | Not Active | Not Active | Not Active | Not Active |  |  |  | 
O=C1c2ccccc2C(=O)C1c1ccccc1 [PHENINDIONE] | Not Active | Not Active | Not Active | Not Active | Not Active | Not Active | Not Active |  |  |  | 
Cc1cc(C(C)(C)C)c(O)c(C)c1CC1=NCCN1 [OXYMETAZOLINE] |  | Not Active | Not Active | Not Active | Not Active | Not Active | Not Active |  |  |  | 
COc1ccccc1OCCNCC(O)COc1cccc2[nH]c3ccccc3c12 (configuration not stated) [CARVEDILOL] |  |  | Not Active | Not Active | Not Active | Not Active | Not Active | 1.8 | 0.883 |  | 
